Assay results reported in US20070122395A1, “Genetic and pharmacological regulation of antidepressant-sensitive biogenic amine transporters through PKG/p38 map kinase” (Vanderbilt University, priority 2005, published 2007).

Legend:
human NET = experiment: monoamine uptake assay in transfected CHO cells; format: cell-based; details: CHO cells, 10-min anisomycin
Procedure: Cell Culture and Transfection. […] CHO cells (ATCC, Manassas, Va.) were maintained at 37° C. in Dulbecco's MEM containing 10% fetal bovine serum, 1% L-Glu, 100 IU/ml penicillin, and 100 μg/ml streptomycin. For comparison of the response of monoamine transporters to p38 MAPK activation, CHO cells were transfected with cDNAs for hSERT, hDAT, or hNET (100 ng/well for a 24-well plate). Transfections of CHO cells were performed using TransIT-LT1 Transfection Reagent (Mirus, Madison, Wis.) according to the manufacturer's protocol (0.3 μl/well). hSERT, hDAT, or hNET cDNAs were preincubated with the reagent at ambient temperature for 30 min before being added to plated CHO cells. Cells were cultured for 24 h after transfection. The transfection mixture was removed just prior to assay.
CHO cells were plated at 20,000 cells/well 16-24 h before transfection, and the uptake assay was performed 24 h following the transfection. […] Medium was removed by aspiration, and cells were washed once with Krebs-Ringer HEPES (KRH) buffer containing 130 mM NaCl, 1.3 mM KCl, 2.2 mM CaCl2, 1.2 mM MgSO4, 1.2 mM KH2PO4, 1.8 g/liter glucose, 10 mM HEPES, pH 7.4. […] Cells were solubilized with 0.5 ml of Microscint 20 (PerkinElmer Life Sciences), and tritium-labeled monoamine accumulation was quantitated using a TopCount plate scintillation counter (PerkinElmer Life Sciences).

hDAT = experiment: monoamine uptake assay in transfected CHO cells; format: cell-based, human; details: 10-min anisomycin
Procedure: (§1) Cell Culture and Transfection. […] Cells were cultured for 24 h after transfection. The transfection mixture was removed just prior to assay.

p38 MAPK = format: cell-based, rat
Procedure: Assays of p38 MAPK Activation. […] Medium was removed by aspiration, and cells were washed once with KRH buffer and then incubated in triplicate at 37° C. in KRH buffer with or without p38 MAPK activators for 5-10 min. Assay buffer was removed, and cells were immediately fixed with fresh 4% formaldehyde (Sigma) in PBS for 20 min at room temperature and washed four times with 1×PBS containing 0.1% Triton X-100 (Sigma) (5 min per wash) prior to 1 h of blocking with Odyssey blocking buffer (Li-Cor Biosciences, Lincoln, Nebr.). RBL-2H3 cells were subsequently probed with dual phosphorylated (Thr(P) and Tyr(P)) p38 MAPK polyclonal antibody (Cell Signaling; 1:400) in Odyssey blocking buffer with gentle mixing for 2 h at room temperature. Cells were then washed four times with 1×PBS containing 0.1% Tween 20 (Sigma) for 5 min. Bound antibody was detected with fluorescence-labeled secondary antibody-Alexa Fluor® 680 (avoiding exposure to light; 1:200 in Odyssey Blocking Buffer, Molecular Probes, Inc., Eugene, Oreg.) for 1 h. After four washes with 1×PBS, 0.1% Tween 20, the plate was scanned, and the captured image of the signal was processed and quantified with the Odyssey™ Infrared Imaging System (Li-Cor Biosciences). For UV radiation to activate p38 MAPK, plates seeded with cells were placed in a UV source (UV Stratalinker 1800, Stratagene, La Jolla, Calif.) that was preset to deliver 4×10^4 μJ/cm^2 at room temperature.

mSERT = experiment: monoamine uptake assay in transfected CHO cells; format: cell-based, mouse; details: 10-min anisomycin
Procedure: as §1

[1] = test system: five hSERT variants that failed to elicit uptake increases; experiment: [125I]RTI-55 surface binding to intact transfected HeLa cells, non-responsive variants; format: cell-based, human; details: five non-responsive variants
hSERT [2] = experiment: in situ SERT phosphorylation in [32P]-prelabeled transfected HeLa cells; format: cell-based, human; details: 8BrcGMP 100 μM, 60 min
[3] = test system: hSERT variants that responded with uptake increases; experiment: [125I]RTI-55 surface binding to intact transfected HeLa cells, responsive variants; format: cell-based, human
[4] = test system: lymphocytes homozygous for the Gly variant (hSERT Gly56); experiment: 5-HT uptake in genotyped lymphocyte lines; format: cell-based, human; details: Gly56 homozygous lymphocytes
Excerpt: (§2) Genotyping and Lymphocyte Studies. Lymphocyte lines were derived from autistic pedigrees recruited by Susan E. Folstein (Johns Hopkins Univ), from the Autism Genetics Resource Exchange (AGRE) collection (www.agre.org/), and from the NIMH Human Genetics Initiative Repository (www.nimhgenetics.org/) at Rutgers University. DNA from lymphoblastoid cell lines was genotyped via TaqMan-based allelic discrimination, using an Applied Biosystems (Foster City, Calif.) Assay-by-Design and independently confirmed by PCR and direct sequence analysis. […] Lymphocyte were pelleted at 1500 rpm, 5 min and washed with KRH assay buffer. A total of 1×10^6 cells in triplicate were pre-warmed (37° C.) in a shaking water bath (10 min) in 12×75 polypropylene tubes in KRH buffer containing 100 μM pargyline and 100 μM ascorbic acid+/−modifiers.

[5] = test system: Gly56Ala heterozygous lymphocytes; experiment: 5-HT uptake in genotyped lymphocyte lines; format: cell-based, human; details: Gly56Ala heterozygous cells
Excerpt: as §2

[6] = test system: Ala56 homozygous lymphocyte lines; experiment: 5-HT uptake in genotyped lymphocyte lines; format: cell-based, human
Excerpt: as §2

hSERT [7] = biological target: T1, hSERT (Homo sapiens, UniProt P31645); experiment: [3H]5-HT transport (SERT uptake) assay in transfected HeLa cells; format: cell-based
T1 construct: The full-length cDNA encoding hSERT in the mammalian expression vector pcDNA3.1; expressed in transfected cells; host or cells: HeLa
Procedure: (§3) Transfection and Transport Studies. HeLa cells, maintained at 37° C. in a 5% CO2 humidified incubator, were grown in complete medium (Dulbecco's Modified Eagle's Medium (DMEM, Invitrogen), 10% fetal bovine serum, 2 mM L-glutamine, 100 units/ml penicillin, and 100 μg/ml streptomycin).
(§4) Transport, Binding, Biotinylation and Phosphorylation Studies. […] To establish levels and biosynthetic progression of hSERT protein produced from mutant cDNAs, HeLa cells were plated in 6-well dishes at 500,000 cells per well and transfected 12 h later. Twenty four hours after transfection, whole cell detergent extracts were blotted for hSERT (mAb Technologies, Inc., 1:1000) using enhanced chemiluminescence (ECL, Amersham) detection.

hSERT Gly56Ala = experiment: in situ SERT phosphorylation in [32P]-prelabeled transfected HeLa cells; format: cell-based, human
[8] = test system: hSERT variants Thr4Ala, Gly56Ala, Glu215Lys, Lys605Asn, Pro621Ser; experiment: 5-HT transport regulation in transfected HeLa cells, non-responsive variants; format: cell-based, human
Procedure: as §3, §4

[9] = biological target: T2, native SERT in RN46A cells (Rattus norvegicus, UniProt P31652); experiment: [3H]5-HT transport assay in RN46A cells; format: cell-based; details: RN46A, 10 min treatment
T2 construct: derived from rat E13 raphenucleus, that expresses native SERT; endogenous in cells; host or cells: RN46A cells

[10] = test system: hSERT variants Leu255Met, Ser293Phe, Pro339Leu, Leu362Met, Ile425Val; experiment: 5-HT transport regulation in transfected HeLa cells, responsive variants; format: cell-based, human
Procedure: as §3, §4

hSERT [11] = biological target: T1, hSERT; experiment: [125I]RTI-55 binding to intact transfected HeLa cells (surface and total SERT); format: cell-based

T1 sequence (P31645 whole entry): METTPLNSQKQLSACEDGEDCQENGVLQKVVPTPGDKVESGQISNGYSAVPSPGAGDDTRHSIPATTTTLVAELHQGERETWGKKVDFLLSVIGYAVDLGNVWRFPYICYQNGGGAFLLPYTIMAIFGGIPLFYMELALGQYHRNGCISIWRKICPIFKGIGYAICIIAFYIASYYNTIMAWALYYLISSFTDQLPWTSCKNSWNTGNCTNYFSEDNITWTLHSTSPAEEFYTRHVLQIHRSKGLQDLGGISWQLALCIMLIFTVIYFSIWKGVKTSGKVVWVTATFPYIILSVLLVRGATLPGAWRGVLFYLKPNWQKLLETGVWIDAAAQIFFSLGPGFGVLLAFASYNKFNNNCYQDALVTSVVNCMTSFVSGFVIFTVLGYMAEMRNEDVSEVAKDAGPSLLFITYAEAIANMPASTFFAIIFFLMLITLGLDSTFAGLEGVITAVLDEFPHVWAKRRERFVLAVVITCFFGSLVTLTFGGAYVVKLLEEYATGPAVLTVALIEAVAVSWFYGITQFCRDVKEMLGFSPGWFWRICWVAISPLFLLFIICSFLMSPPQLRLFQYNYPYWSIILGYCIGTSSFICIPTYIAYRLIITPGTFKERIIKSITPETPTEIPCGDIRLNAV
T2 sequence (P31652 whole entry): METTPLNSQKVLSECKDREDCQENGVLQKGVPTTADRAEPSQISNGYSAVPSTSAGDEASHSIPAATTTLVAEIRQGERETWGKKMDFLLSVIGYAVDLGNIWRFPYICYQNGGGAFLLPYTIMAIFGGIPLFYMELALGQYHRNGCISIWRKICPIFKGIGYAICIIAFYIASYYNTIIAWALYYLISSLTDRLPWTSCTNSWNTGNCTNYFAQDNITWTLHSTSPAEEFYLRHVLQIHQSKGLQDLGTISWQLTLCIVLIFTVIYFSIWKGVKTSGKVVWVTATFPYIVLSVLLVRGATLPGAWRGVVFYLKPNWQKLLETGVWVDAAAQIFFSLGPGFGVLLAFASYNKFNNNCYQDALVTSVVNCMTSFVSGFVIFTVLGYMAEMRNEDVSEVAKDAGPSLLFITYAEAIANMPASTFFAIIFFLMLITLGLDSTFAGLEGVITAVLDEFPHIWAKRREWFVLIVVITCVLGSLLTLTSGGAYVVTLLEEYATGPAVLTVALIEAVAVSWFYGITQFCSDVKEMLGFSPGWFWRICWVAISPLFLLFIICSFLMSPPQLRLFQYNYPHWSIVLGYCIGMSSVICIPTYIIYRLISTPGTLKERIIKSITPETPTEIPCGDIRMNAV

| SMILES | anisomycin-modulated NE uptake (NET activity) (human NET) | anisomycin-modulated DA uptake (hDAT) | increase in phosphorylated p38 MAPK (p38 MAPK; 0.5 and 1.0 μm, 5 min) | level of p38 MAPK phosphorylation stimulation (p38 MAPK; 5 min treatment) | total p38 MAPK levels (p38 MAPK; data not shown) | anisomycin-modulated 5-HT uptake (mSERT) | [125I]RTI-55 surface binding after 8BrcGMP [1] | elevation of basal SERT phosphorylation (hSERT [2]) [%] | [125I]RTI-55 surface binding after 8BrcGMP [3] | stimulation of 5-HT transport [4] | sensitivity of 5-HT uptake to activator [5] | sensitivity of 5-HT uptake to activator [6] | stimulation of 5-HT transport activity (peak increase) (hSERT [7]) | SERT phosphorylation response to 8BrcGMP (hSERT Gly56Ala) | 8BrcGMP effect on SERT activity [8] | stimulation of 5-HT transport [9] | 8BrcGMP effect on SERT activity [10] | [125I]RTI-55 surface binding after 8BrcGMP (hSERT [11]; 100 μM 8BrcGMP, 5-HT 100 μM as displacer) | total [125I]RTI-55 binding (hSERT [11]; paroxetine as displacer, data not shown) |
| --- | --- | --- | --- | --- | --- | --- | --- | --- | --- | --- | --- | --- | --- | --- | --- | --- | --- | --- | --- |
| COc1ccc(C[C@H]2NC[C@H](O)[C@H]2OC(C)=O)cc1 [anisomycin] | stimulated to a comparable degree as hSERT | small, but significant SB203580-sensitive inhibition of DA uptake | 2-3 fold | comparable to stimulation achieved with 8-bromo-cGMP | No changes | SB203580-sensitive elevation in 5-HT uptake |  |  |  |  |  |  |  |  |  |  |  |  |  |
| Nc1nc2c(nc(Br)n2[C@@H]2O[C@@H]3COP(=O)(O)O[C@H]3[C@H]2O)c(=O)[nH]1 [8BrcGMP, 8-bromo-cGMP] |  |  |  |  |  |  | reduction in [^125I]RTI-55 surface binding | ~80 | elevated [^125I]RTI-55 surface binding | robust 8BrcGMP stimulation of 5-HT transport | intermediate sensitivity | lacked sensitivity | 50-70% | could not be further phosphorylated | completely insensitive | increase in 5-HT transport | dose-dependent, H8-sensitive stimulation of SERT activity comparable to hSERT | Parallel changes in [^125I]RTI-55 surface binding | no effects on total binding |
